The test system of series [1] is CHO-K1 cells. The conditions noted are these: cited from earlier work.
Series [2] deals with human lymphocytes.
The test system of series [3] is CHO-K1 cells. The conditions noted are these: Chinese hamster.
Series [4] concerns human lymphocytes. The conditions noted are these: male, human.
In series [5] the test system is mice. The conditions noted are these: lifetime studies in the mouse; cited from earlier work.
The subject of series [6] is rats. The conditions noted are these: lifetime studies in the rat; cited from earlier work.
For series [7] the following is noted: human PK studies, high therapeutic doses; cited from earlier work.

The values below come from PMC4840262 (Mutagenesis, 2015).

The structures appear in SMILES notation. Structures can show the parent of a compound that is named as a salt. Where two headings read alike, the source gives them in different places. Marks after values point to notes of the source that are not given here.

For the compound `CCC[S+]([O-])c1ccc2[nH]c(NC(=O)OC)nc2c1` (stereo not shown) [Albendazole sulfoxide, albendazole sulfoxide], in series [1], the “Td (threshold dose)” value was 1.708 µg/mL and the “Td–L–CI (lower confidence Td)” value is 1.474 µg/mL. The “Lowest non-significant doses (micronuclei)” value in series [2] (male, human) came out at 3.0 µg per ml. In series [3], this compound registered a BMD10 of 1.100 µg/mL and a BMDL10 of 0.861 µg/mL. Moreover, in series [4], the “%C+ micronuclei” value is reported as 71% and the “%C− micronuclei” value came to 29%.

Take `CCCSc1ccc2nc(NC(=O)OC)[nH]c2c1` [Albendazole, albendazole]: in series [1], the “Td (threshold dose)” value was 0.005 µg/mL and the “Td–L–CI (lower confidence Td)” value was 0.003 µg/mL. Also, in series [2] (male, human), the “Fold increases in MN over concurrent vehicle control” value (“Fold increases in MN” below) was 9.3 and the “Lowest non-significant doses (micronuclei)” value is listed as 0.04 µg per ml. Also, the “Carcinogenicity (in words)” value in series [5] was “negative”. Besides, the “Carcinogenicity (in words)” value in series [6] was “negative”. In addition, in series [3], the BMD10 came out at 0.037 µg/mL and the BMDL10 worked out at 0.027 µg/mL. Also, in series [4], the “%C+ micronuclei” value was determined as 72% and the “%C− micronuclei” value amounted to 28%.

As to `CCCCNC(=O)n1c(NC(=O)OC)nc2ccccc21` [Benomyl, benomyl], in series [1], the “Td (threshold dose)” value is 0.659 µg/mL and the “Td–L–CI (lower confidence Td)” value was 0.520 µg/mL. Also, in series [3], the BMD10 stood at 0.450 µg/mL and the BMDL10 was found to be 0.348 µg/mL.

`COC(=O)Nc1nc2ccccc2[nH]1` [Carbendazim, carbendazim]: in series [1], the “Td (threshold dose)” value was 0.346 µg/mL and the “Td–L–CI (lower confidence Td)” value was 0.268 µg/mL. Also, in series [3], the BMD10 is 0.310 µg/mL and the BMDL10 was determined as 0.235 µg/mL.

Consider `O=P1(N(CCCl)CCCl)NCCCO1` (stereo not shown) [Cyclophosphamide, cyclophosphamide], for which, in series [2] (male, human), the “Fold increases in MN” value worked out at 5.6 and the “Mean MNBN cell frequency (%)” value is reported as 1.40* %. In series [4], the “% micronuclei with a centromere” value is recorded as 16% and the “% micronuclei without a centromere” value is 84%.

As for `COC(=O)Nc1nc2ccc(C(=O)c3ccccc3)cc2[nH]1` [Mebendazole, mebendazole], in series [3], the BMD10 was found to be 0.024 µg/mL and the BMDL10 stood at 0.018 µg/mL. The Oral bioavailability entry in series [7] is given as “around 2%”.

Consider `CO[C@@]12[C@H](COC(N)=O)C3=C(C(=O)C(C)=C(N)C3=O)N1C[C@@H]1N[C@@H]12` [Mitomycin C, mitomycin C], for which the “Mean MNBN cell frequency (%)” value in series [2] (male, human) is given as 8.70* %.

Turning to `CCCOc1ccc2nc(NC(=O)OC)[nH]c2c1` [Oxibendazole, oxibendazole], in series [1], the “Td (threshold dose)” value was 0.032 µg/mL and the “Td–L–CI (lower confidence Td)” value is 0.032 µg/mL. Moreover, in series [3], the BMD10 was found to be 0.015 µg/mL and the BMDL10 is 0.010 µg/mL.

Consider `COC(=O)Nc1nc2ccc([C@H](O)c3ccc(F)cc3)cc2[nH]1` [R-reduced flubendazole], for which, in series [2], the “Cytotoxicity (%)” value was 3.0% and the “Lowest dose, significant increase in micronuclei seen” value stood at 1.1 µg per ml.

Consider `COC(=O)Nc1nc2ccc(C(O)c3ccc(F)cc3)cc2[nH]1` (stereo not shown) [S-reduced flubendazole], for which the “Cytotoxicity (%)” value in series [2] is on record as 0.0%.

Take `CC[C@]1(O)C[C@@H]2CN(CCc3c([nH]c4ccccc34)[C@@](C(=O)OC)(c3cc4c(cc3OC)N(C)[C@H]3[C@@](O)(C(=O)OC)[C@H](OC(C)=O)[C@]5(CC)C=CCN6CC[C@]43[C@@H]65)C2)C1` [Vinblastine, vinblastine sulfate]: the “Fold increases in MN” value in series [2] (0.12 μg/ml) was 56.6. Further, in series [2] (male, human), the “Frequency of micronucleated binucleate cells (%)” value was 9.25* %.

With `c1ccc2[nH]c(-c3cscn3)nc2c1` [thiabendazole], the “MNBN induction in CHO-K1 cells (in words)” value in series [1] was “inactive”.
